Measured values taken from patent US20080300303A1, “Substances and Pharmaceutical Compositions for the Inhibition of Glyoxalases and Their Use As Anti-Fungal Agents” (priority 2005, published 2008).
Where a name gives a salt, the structure may show the parent alone.

Columns and labels:
yeast glyoxalase I = target: T1, yeast glyoxalase I (Saccharomyces cerevisiae, UniProt P50107); experiment: Enzymatic activity of yeast glyoxalase I; assay type: biochemical; settings: for Inhibition of the reaction of yeast glyoxalase I: increasing concentrations (FIG. 1-3; 0-30 mM in FIG. 3)
T1 construct: purchased Sigma G-4252
T1 sequence (P50107 1-326): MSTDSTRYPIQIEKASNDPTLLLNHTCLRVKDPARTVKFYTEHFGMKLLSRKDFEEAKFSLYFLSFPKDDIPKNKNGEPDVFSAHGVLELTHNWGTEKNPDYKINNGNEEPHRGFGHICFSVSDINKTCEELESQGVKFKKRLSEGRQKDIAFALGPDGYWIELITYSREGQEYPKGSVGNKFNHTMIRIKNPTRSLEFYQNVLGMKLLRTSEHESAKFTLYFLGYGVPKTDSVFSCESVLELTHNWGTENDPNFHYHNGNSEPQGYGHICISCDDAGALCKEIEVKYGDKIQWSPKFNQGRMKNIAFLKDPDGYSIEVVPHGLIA
Procedure: Measuring glyoxalase I (E.C.4.4.1.5, lactoyl-glutathione lyase Sigma, G-4252) was performed according to the instructions of McLellan and Thornalley (1989). The principle is based on measuring the initial rate of formation of S-D-lactoyl-glutathione from methylglyoxal (Sigma, M0252, 40%) and reduced L-glutathione (Aldrich, G-4251, >99%). The formation of the product is observed using the extinction coefficient e=2.86 mM−1 cm−1 at 240 nm. The measurement was performed in 50 mM sodium phosphate buffer, pH 7.0. For that purpose 2 mM methylglyoxal and 2 mM reduced glutathione were incubated for 2 minutes at 30° C. for the formation of the hemithioacetal. Thereafter 20 μl of a 1 to 1000 dilution of the glyoxalase I (Sigma, G-4252) was added to 1 ml of the measuring reagent to start the reaction.
Glyoxalase activity (IU) corresponds to the amount of enzyme forming 1 μmol of S-D-lactoyl-glutathione/min.
Determination of glyoxalase I activity was performed according to the general protocol as described above. The influence of ethyl pyruvate on enzyme activity was investigated by addition of increasing concentrations of EP (Sigma; no. E4,780-8; lot. S18972-513) to the measuring reagent.
Determination of glyoxalase I activity was performed according to the general protocol as described above. The influence of compounds of the general formula (I), (II), and (III) on the activity of the enzyme was investigated by addition of increasing concentrations of these compounds to the preparation. The IC50-values were calculated from inhibition curves of each compound.
Determination of glyoxalase I activity . . . was performed according to the general protocol as described above. The influence of 2-oxopropanethioic acid S-ethyl ester on the activity of the enzyme was investigated by addition of increasing concentrations of SE to the preparation for the measurement.
Determination of glyoxalase I activity was performed according to the general protocol as described above. The influence of effectors on the enzymatic activity was investigated by addition of increasing concentrations (0-30 mM) of EP (Sigma; no. E4,780-8; lot. S18972-513) (triangle), BP (prepared according to the instructions of patent JP 11080089; 98%) (circle) and BL (Fluka, 69819; lot. 443090/1 21503090) (squares) to the measuring reagent (FIG. 3).

[1] = system: primary human skin fibroblasts; experiment: Vitality of primary human fibroblasts (dye exclusion count); assay type: cell-based; settings: 1-50 mM, 24 hours, serum free medium, FIG. 7
Procedure: An identical number (10^4 cells per well) of primary human skin fibroblasts were inoculated in 24-well plates (Greiner, no. 662160) and were cultured in DMEM (Gibco; no. 41966-092) in the presence of 10% calf serum (Biochrom, S0113/5), 2 mM L-glutamine (Gibco; no. 25030-024), penicillin/streptomycin (100 units penicillin/ml; 100 μg streptomycin/ml, Gibco; no. 15140/122), 5 mg % ascorbic acid (Serva, no. 14030.02) at 37° C., 5% CO2 and 95% humidity. The primary human fibroblasts were prepared according to the instructions of Birkenmeier et al. (1998). After reaching 50% confluency the medium was by fresh serum free medium. Thereafter the following supplements were added to the cells: preparation 1 (equivalent volume of serum free (SF) medium, blank); preparation 2 (1 mM DEL or 1 mM LEL or 1 mM EP); preparation 3 (5 mM DEL or 5 mM LEL or 5 mM EP), preparation 4 (10 mM DEL or 10 mM LEL or 10 mM EP), preparation 5 (20 mM DEL or 20 mM LEL or 20 mM EP), preparation 6 (50 mM DEL or 50 mM LEL or 50 mM EP). The culture was continued at 37° C., 5% CO2 and 95% humidity for 24 hours. Thereafter the supernatants were removed and 100 μl of a 50% […] solution was added to the wells. After washing the cells with medium the unstained and stained cells were counted under the light optical microscope comprising a coordinate plane. Cells stained blue were assessed as avital, unstained cells as vital. The percentage of unstained cells of the total number of cells corresponds to the vitality of the cells.

yeast glyoxalase II = experiment: Enzymatic activity of yeast glyoxalase II (cell free extract); assay type: biochemical, Saccharomyces cerevisiae; settings: 0-20 mM, FIG. 4
Procedure: Protein concentration of the cell free extract was determined according to the Bradford method (Bradford, 1976).
The activity of the glyoxalase II (Hydroxyacyl glutathione hydrolase, E.C. 3.1.2.6.) was determined according to the instructions of Martins et al. (1999) in 0.1 M MES buffer, pH 6.5, 1.5 mM S-D-lactoyl-glutathione (L7140, Sigma-Aldrich Chemistry GmbH) and 0.75 mM DTNB (Sigma, D8130). After addition of suitable amounts of cell extract and an incubation period of 15 min at 25° C. the formation of glutathione was measured at 412 nm (ε=13.6 mM^−1 cm^−1). The activity of the glyoxalase II (IU) correlates with the amount of enzyme hydrolysing 1 μmol of S-D-lactoyl-glutathion/min.
The influence of ethyl pyruvate on the activity of the enzyme was investigated by adding increasing concentrations of EP (Sigma, No. E4,780-8; Lot. S18972-513) (0-20 mM) to the measurement reagent.

[2] = target: T2, glyoxalase I of human erythrocytes (Homo sapiens, UniProt Q04760); experiment: Enzymatic activity of human erythrocyte glyoxalase I; assay type: biochemical; settings: 0-50 mM, FIG. 5
T2 construct: from tissue; host or cells: human erythrocyte lysate
T2 sequence (Q04760 2-184 limits assumed): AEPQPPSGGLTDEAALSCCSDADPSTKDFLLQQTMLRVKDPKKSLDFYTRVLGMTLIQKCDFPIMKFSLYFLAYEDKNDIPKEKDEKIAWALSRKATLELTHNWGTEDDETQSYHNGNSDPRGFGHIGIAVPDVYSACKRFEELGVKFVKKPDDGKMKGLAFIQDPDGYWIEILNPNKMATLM
Procedure: The determination of glyoxalase I was performed as described above for the yeast enzyme. After the formation of the hemithioacetal, suitable amounts (5 to 100 μl) of an erythrocyte lysate were added to 1 ml of the measuring reagent to start the reaction. The erythrocyte lysate was prepared according to the instructions of Mannervik et al. (1982).
Glyoxalase activity (IU) corresponds to the amount of enzyme forming […] of S-D-lactoyl-glutathione/min.
Determination of glyoxalase I activity was performed according to the general protocol as described above. The influence of ethyl pyruvate on enzyme activity was investigated by addition of increasing concentrations of EP (Sigma; no. E4,780-8; lot. S18972-513) (0-50 mM) to the measuring reagent.

[3] = target: T3, glyoxalase II of human erythrocytes (Homo sapiens, UniProt Q16775); experiment: Enzymatic activity of human erythrocyte glyoxalase II; assay type: biochemical; settings: 0-20 mM, FIG. 6
T3 construct: from tissue; host or cells: human erythrocyte hemolysate
Procedure: The determination of erythrocyte glyoxalase II (E.C.3.1.2.6., hydroxyacyl glutathione hydrolase) was performed according to the instructions of McLellan and Thornalley (1989). The principle is based on determining the initial hydrolysis of S-D-lactoyl-glutathione (L 7140, Sigma—Aldrich Chemie GmbH) in the presence of low amounts of a cell extract. Hydrolysis is observed on the basis of the reduction of the extinction at 240 nm (e=−3.1 mM−1 cm−1). Glyoxalase II activity (IU) correlates to the amount of enzyme hydrolysing 1 μmol of S-D-lactoyl-glutathione/min. The measurement was performed in 100 mM Tris-HCl buffer, pH 7.4. For this purpose 0.4 mM S-D-lactoyl-glutathione was added to 1 ml of the measuring reagent and the reaction was started by addition of suitable amounts (5-100 μl) of an erythrocyte hemolysate. The erythrocyte lysate was prepared according to the instructions of Mannervik et al. (1982).
Determination of glyoxalase II activity was performed according to the general protocol as described above. The influence of ethyl pyruvate on the activity of the enzyme was investigated by addition of increasing concentrations of EP (Sigma, no. E 4,780-8; lot. S18972-513) (0-20 mM) to the measuring reagent.

[4] = system: fluconazole resistant Candida albicans strain A435 5; experiment: Growth of fluconazole resistant Candida albicans, O.D. at 600 nm; assay type: cell-based
Procedure: A colony of the fluconazole resistant Candida albicans strain A435 5 was cultured in the same medium and under the same conditions as used for Saccharomyces HD65-5a.
At an O.D. of 14.4 (600 nm) a starting density of O.D. 0.20 was set by dilution with culture medium.
(§1) Samples of 1 ml were taken after 5 hours and the O.D. at 600 nm was determined as a standard for the cell number. The resistance against fluconazole was determined according to the guidelines of NCCLS (1997). Resistance is defined as growth at a dosage of a ≧64 μg/ml of fluconazole.

[5] = system: fluconazole sensitive Candida albicans strain R/HO13; experiment: Growth of fluconazole sensitive Candida albicans, O.D. at 600 nm; assay type: cell-based
Procedure: A colony of the fluconazole sensitive Candida albicans strain R/HO13 was cultured as described above. […] Samples of 1 ml were taken after 9 hours and the O.D. was measured at 600 nm.

[6] = system: Candida albicans, Candida krusei, Candida tropicalis, Candida glabrata, Candida parapsilosis; experiment: Agar dilution antimicrobial susceptibility test; assay type: cell-based, Candida spp.; settings: 12.5 mM to 40 mM in agar, 37° C., 20 hours, FIG. 9
Procedure: Control agar plates were prepared without EP.

Candida albicans [7] = experiment: Mouth lavage in a patient suffering from candidiasis; assay type: in vivo; settings: lavage 10 ml 75 mM ethyl pyruvate, 1% glucose in saline, 3 times daily over 4 days
Procedure: A patient with a diagnosis of diabetes mellitus (presenting with a fasting blood sugar level of 6.88 mM) complained about dryness in the mouth, chapped lips and white blotchy alterations of the oral mucosa.

[8] = system: Saccharomyces cerevisiae HD65-5a; experiment: Growth of yeast cells, O.D. at 600 nm; settings: increasing concentrations, (FIG. 8, Table 5)
Procedure: A colony of strain HD 65-5a (Saccharomyces cerevisiae) was inoculated in 5 ml YPD-medium [(2% glucose (Fluka), 1% yeast extract (BD, Sparks), 2% peptone (BD, Sparks)] in a rotating 20 ml glass tube and was incubated overnight at 30° C. At an O.D. of 12.9 (580 nm) a starting density of O.D. 0.19 was adjusted by dilution with a culture medium.
The culture was aliquoted to 10 ml (in 20 ml glass tubes), and the respective test substances were added. The aliquots were incubated at 30° C. under continuous rotation of the tubes (200 U/min). At the indicated times, samples were removed and optical density was determined at a wavelength of 600 nm.
A colony of Saccharomyces strain HD65-5a was cultured as describe above.
After defined intervals 1 ml samples were removed and the O.D. was measured at 600 nm.
A colony of Saccharomyces strain HD65-5a was cultured as describe above. […] Samples of 1 ml were taken after 8 hours and were measured at 600 nm.

Candida albicans [9] = experiment: Fluconazole susceptibility according to NCCLS guidelines; assay type: cell-based
Procedure: as §1
The strain was sensitive against fluconazole at a dosage of ≦0.13 μg/ml.

| SMILES | Inhibition of the reaction of yeast glyoxalase I (yeast glyoxalase I) | Toxicity / vitality of primary human fibroblasts [1] | IC50 (yeast glyoxalase I) [mM] | Inhibition of growth of fluconazole resistant Candida albicans cells [4] | further results |
| --- | --- | --- | --- | --- | --- |
| CCCCOC(=O)[C@H](C)O [(−)-Butyl L-Lactate] | does not influence |  |  |  |  |
| CCOC(=O)[C@@H](C)O [(+)-Ethyl D-Lactate] |  | not toxic |  |  |  |
| CCSC(=O)C(C)=O [SE, 2-Oxopropanethioic acid S-ethyl ester] | inhibits |  |  |  |  |
| CCOC(=O)C(C)=O [Ethyl pyruvate] |  | not toxic | 10 | inhibit | Inhibition of the reaction of yeast glyoxalase I (yeast glyoxalase I; listed as EP): inhibit; Inhibition of the reaction of yeast glyoxalase II (yeast glyoxalase II): inhibits; Inhibition of the reaction of glyoxalase I of human erythrocytes [2]: inhibits; Inhibition of the reaction of glyoxalase II of human erythrocytes [3]: inhibits; Inhibition of growth of fluconazole sensitive Candida albicans cells [5]: inhibit; Inhibition of growth and proliferation of different fungi (1-7) [6]: effectively inhibits; Reduction of germ number in lavage of the oral cavity (Candida albicans [7]): < 5%; Inhibition of growth of yeast cells ([8]; listed as EP): inhibit |
| OC(Cn1cncn1)(Cn1cncn1)c1ccc(F)cc1F [fluconazole] |  |  |  |  | Fluconazole dosage at which growth defines resistance (Candida albicans [9]; strain A435 5, NCCLS (1997)): ≥ 64 µg/mL; Fluconazole dosage at which the strain was sensitive (Candida albicans [9]; strain R/HO13): ≤ 0.13 µg/mL |
| CCOC(=O)C(=O)CC [Ethyl 2-oxobutyrate] |  |  | 1.8 | inhibit |  |
| CCOC(=O)C(=O)OCC [Diethyl oxalate, reference compound] |  |  | > 50 |  |  |
| CCCCOC(=O)C(C)=O [Butyl pyruvate] | inhibit |  | 7.5 | inhibit | Inhibition of growth of fluconazole sensitive Candida albicans cells [5]: inhibit; Inhibition of growth of yeast cells [8]: inhibit |
| COC(=O)C(C)=O [Methyl pyruvate] |  |  | 15 |  |  |
| CCOC(=O)[C@H](C)O [(−)-Ethyl L-Lactate] |  | not toxic |  |  | Inhibition of growth of yeast cells [8]: did not influence growth |
